Series [1] addresses T1, bacterial β-glucuronidase (Escherichia coli, UniProt P05804). Conditions: read-out: apparent Km value for cleavage by β-glucuronidase; linear conditions of protein concentration and incubation time; FIG. 1.
For series [2], the target named is T2, UGT2B7Y(268) (Homo sapiens, UniProt P16662).
T2 sequence (P16662 24-529): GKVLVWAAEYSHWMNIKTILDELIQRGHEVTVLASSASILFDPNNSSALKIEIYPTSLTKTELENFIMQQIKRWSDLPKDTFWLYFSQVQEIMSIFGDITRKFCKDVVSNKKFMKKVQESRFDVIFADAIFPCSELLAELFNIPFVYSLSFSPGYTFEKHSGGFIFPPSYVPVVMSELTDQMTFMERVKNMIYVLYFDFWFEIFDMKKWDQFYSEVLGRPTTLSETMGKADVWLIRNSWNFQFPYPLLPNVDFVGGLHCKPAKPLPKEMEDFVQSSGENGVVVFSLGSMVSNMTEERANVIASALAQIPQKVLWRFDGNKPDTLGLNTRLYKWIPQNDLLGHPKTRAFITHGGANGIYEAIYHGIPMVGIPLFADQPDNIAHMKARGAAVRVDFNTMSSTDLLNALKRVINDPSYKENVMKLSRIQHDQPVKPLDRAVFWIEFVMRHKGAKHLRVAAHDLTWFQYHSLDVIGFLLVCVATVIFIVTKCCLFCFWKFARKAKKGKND

For series [3], the target named is T3, UGT2B7H(268) (Homo sapiens, UniProt P16662, Y268H).
T3 sequence (P16662 24-529 Y268H): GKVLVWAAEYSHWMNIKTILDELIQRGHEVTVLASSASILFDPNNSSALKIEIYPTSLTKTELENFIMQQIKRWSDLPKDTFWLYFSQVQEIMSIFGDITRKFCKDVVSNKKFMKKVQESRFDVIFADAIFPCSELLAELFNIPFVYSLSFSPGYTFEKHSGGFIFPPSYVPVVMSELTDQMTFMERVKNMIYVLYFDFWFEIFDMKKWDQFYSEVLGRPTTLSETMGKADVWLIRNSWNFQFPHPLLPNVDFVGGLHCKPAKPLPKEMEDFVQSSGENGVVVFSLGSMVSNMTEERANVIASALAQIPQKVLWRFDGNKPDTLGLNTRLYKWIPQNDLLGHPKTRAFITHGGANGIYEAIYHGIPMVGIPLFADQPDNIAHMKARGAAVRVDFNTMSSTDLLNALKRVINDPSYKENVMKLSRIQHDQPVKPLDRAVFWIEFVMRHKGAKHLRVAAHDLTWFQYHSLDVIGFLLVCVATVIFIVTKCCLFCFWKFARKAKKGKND

Series [4] addresses T3, UGT2B7H(268). In words: Kinetics of glucuronidation, membrane preparations of HK293 cells stably expressing UGT2B7H(268).
Series [5] has as its target T2, UGT2B7Y(268). The series is described as follows: Kinetics of glucuronidation, membrane preparations of HK293 cells stably expressing UGT2B7Y(268).
In series [6] the target is T1, bacterial β-glucuronidase. The series is described as follows: Inhibition of 4-methylumbelliferyl-β-D-glucuronide cleavage by β-D-glucuronides. Type of series: biochemical. Set-up: purchased Sigma, St. Louis Mo; G-7396. The conditions noted are these: for inhibition of 4-methylumbelliferyl-β-D-glucuronide cleavage (production of 4-methylumbelliferone): FIG. 2, varying glucuronide concentrations. From the text: FIG. 2 depicts the effect of varying concentrations of β-D-glucuronide on the ability of β-glucuronidase to cleave various substrates.
Tetrahydrocortisone 3-β-D-glucuronide was obtained from Molecular Probes, Eugene, Oreg. Recombinant control and UGT1A6 membrane preparations were generated and are commercially available from PanVera Corporation, Madison Wis. All other reagents were analytical grade or better and purchased from a variety of commercial sources.
In order to show the feasibility of developing a high throughput inhibition assay, we examined the potential of a variety of structurally dissimilar, commercially available β-D-glucuronides to act as inhibitors for the cleavage of 4-methylumbelliferyl-β-D-glucuronide. These β-D-glucuronides represent compounds that might potentially be formed by UGT activity e.g. phenol and steroid glucuronides.

The conditions of series [7]: cited from earlier work.
A further series has as its target T4, UGT2B7 (Homo sapiens, UniProt P16662).
T4 sequence (P16662 24-529): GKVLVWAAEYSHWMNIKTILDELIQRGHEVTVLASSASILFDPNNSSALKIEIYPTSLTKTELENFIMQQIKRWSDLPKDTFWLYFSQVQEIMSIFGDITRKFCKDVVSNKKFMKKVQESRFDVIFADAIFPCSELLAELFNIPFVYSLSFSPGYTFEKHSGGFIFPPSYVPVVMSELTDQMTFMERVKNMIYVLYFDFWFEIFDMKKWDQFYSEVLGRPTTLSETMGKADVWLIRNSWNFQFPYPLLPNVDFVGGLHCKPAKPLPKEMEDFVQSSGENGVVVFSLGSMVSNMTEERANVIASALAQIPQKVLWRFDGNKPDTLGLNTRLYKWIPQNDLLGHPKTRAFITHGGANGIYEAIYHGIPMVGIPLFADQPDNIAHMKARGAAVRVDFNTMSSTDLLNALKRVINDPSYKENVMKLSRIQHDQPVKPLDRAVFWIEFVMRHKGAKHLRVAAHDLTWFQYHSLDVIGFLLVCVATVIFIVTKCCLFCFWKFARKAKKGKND
From the text: Heterologous expression and characterization of full length UGT 2B7.
Stable UGT2B7 cell lines were established from embryonic human kidney cells (HK293 cells) and microsomal membrane fractions from these cells were used to assess the properties of the recombinant enzyme. […] The specificity of the purified UGT2B7 will be assessed by determining overall catalytic efficiency with each aglycone substrate, as reflected in a ratio of the two fundamental Michaelis kinetic parameters, Vmax/Km. Reaction rates will be determined over a range of substrate concentrations and nonlinear regression will be used to fit the UGT rate data to velocity versus substrate curves (Graph Pad, Prism). Vmax/Km values will be determined and compared with those determined with the enzyme isolated from HK293 cells (Table 1). […] This ratio will be determined for the purified enzyme using HPLC-based methods for separation and quantification of the two glucuronides.

The next series addresses recombinant human UGT1A6 (Homo sapiens, UniProt P19224).
Substrate in series [8]: O=C1CC[C@@]2(O)[C@H]3Cc4ccc(O)c5c4[C@@]2(CCN3CC2CC2)[C@H]1O5
In words: cells, lysate or membranes named. Conditions: two values = two different passages of cultured cells.

Substrate in series [9]: CN1CC[C@]23c4c5ccc(O)c4O[C@H]2C(=O)CC[C@@]3(O)[C@H]1C5
In words: cells, lysate or membranes named.

Substrate in series [10]: C=CCN1CC[C@]23c4c5ccc(O)c4O[C@H]2C(=O)CC[C@@]3(O)[C@H]1C5
The series is described as follows: cells, lysate or membranes named. Conditions: two values = two different passages of cultured cells.

Substrate in series [11]: C=CCN1CC[C@]23c4c5ccc(O)c4O[C@H]2[C@@H](O)C=C[C@H]3[C@H]1C5
The series is described as follows: cells, lysate or membranes named.

“Also recorded” adds a separate entry of the source. Like-named read-outs stand apart in the source and are kept apart here.

Results on 15 molecules are retold here after patent US6551790B2, “Process for glucuronidation screening” (PanVera LLC, priority 1998, dated 2003).

T1 sequence (P05804 whole entry): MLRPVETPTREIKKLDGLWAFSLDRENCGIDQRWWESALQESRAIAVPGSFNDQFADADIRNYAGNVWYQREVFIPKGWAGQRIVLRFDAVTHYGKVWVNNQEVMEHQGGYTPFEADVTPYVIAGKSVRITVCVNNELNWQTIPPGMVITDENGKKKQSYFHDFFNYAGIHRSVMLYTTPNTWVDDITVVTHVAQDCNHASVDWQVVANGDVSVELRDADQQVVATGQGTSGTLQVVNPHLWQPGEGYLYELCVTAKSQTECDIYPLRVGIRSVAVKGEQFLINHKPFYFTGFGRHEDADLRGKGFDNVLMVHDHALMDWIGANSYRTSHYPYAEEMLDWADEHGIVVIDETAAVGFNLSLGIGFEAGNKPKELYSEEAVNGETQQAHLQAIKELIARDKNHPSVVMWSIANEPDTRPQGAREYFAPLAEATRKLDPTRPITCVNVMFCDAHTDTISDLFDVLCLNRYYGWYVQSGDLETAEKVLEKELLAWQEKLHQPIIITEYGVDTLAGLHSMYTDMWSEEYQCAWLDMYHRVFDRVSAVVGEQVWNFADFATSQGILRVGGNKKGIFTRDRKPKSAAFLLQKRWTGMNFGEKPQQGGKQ
recombinant human UGT1A6, sequence (P19224 27-532): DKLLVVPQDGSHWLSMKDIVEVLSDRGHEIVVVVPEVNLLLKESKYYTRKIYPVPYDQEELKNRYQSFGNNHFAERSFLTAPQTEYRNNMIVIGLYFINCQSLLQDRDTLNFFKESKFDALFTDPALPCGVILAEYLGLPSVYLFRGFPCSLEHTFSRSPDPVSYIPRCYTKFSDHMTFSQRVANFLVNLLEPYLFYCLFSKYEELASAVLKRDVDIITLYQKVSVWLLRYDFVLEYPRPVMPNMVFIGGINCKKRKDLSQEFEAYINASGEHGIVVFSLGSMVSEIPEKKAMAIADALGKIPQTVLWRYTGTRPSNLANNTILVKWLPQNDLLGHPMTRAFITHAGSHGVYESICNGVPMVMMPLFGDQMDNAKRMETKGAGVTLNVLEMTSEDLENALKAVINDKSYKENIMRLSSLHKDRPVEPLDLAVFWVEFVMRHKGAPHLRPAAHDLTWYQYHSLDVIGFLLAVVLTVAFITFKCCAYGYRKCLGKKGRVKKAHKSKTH

On to `Cc1cc(=O)oc2cc(O[C@@H]3O[C@H](C(=O)O)[C@@H](O)[C@H](O)[C@H]3O)ccc12` [4-methylumbelliferyl-β-D-glucuronide], for which the Km in series [1] is about 56 µM.

Take `CC(C)NC[C@@H](O)COc1cccc2ccccc12` [R-propanolol]: the “Efficiency Vmax/Km (x100)” value was 53 at UGT2B7Y(268) [2] and 192 at UGT2B7H(268) [3]. Also, the Km at UGT2B7Y(268) [2] is 180 µM. Further, the Vmax on UGT2B7H(268) [4] is reported as 194, 86 pmol/min/mg protein; at UGT2B7Y(268) [5], 96 pmol/min/mg protein.

Regarding `CC(C)NC[C@H](O)COc1cccc2ccccc12` [S-propanolol], the “Efficiency Vmax/Km (x100)” value is reported as 38, 259 on UGT2B7Y(268) [2] and 205 at UGT2B7H(268) [3]. For the same molecule, the Km at UGT2B7H(268) [3] stood at 72 ± 19 µM. Besides, the Vmax is on record as 148 ± 30 pmol/min/mg protein on UGT2B7H(268) [4] and 70, 140 pmol/min/mg protein at UGT2B7Y(268) [5].

Consider `O=C(O)[C@H]1O[C@H](OP(=O)(O)OP(=O)(O)OC[C@H]2O[C@@H](n3ccc(=O)[nH]c3=O)[C@H](O)[C@@H]2O)[C@H](O)[C@@H](O)[C@@H]1O` [UDPGA, Uridine 5′-diphosphoglucuronic acid], for which the “inhibition of 4-methylumbelliferyl-β-D-glucuronide cleavage (production of 4-methylumbelliferone)” value (“inhibition” for short) in [6] is on record as “not an effective competitor”.

As for `CN1CC[C@]23c4c5ccc(O[C@@H]6O[C@H](C(=O)O)[C@@H](O)[C@H](O)[C@H]6O)c4O[C@H]2[C@@H](O)C=C[C@H]3[C@H]1C5` [morphine-3-O-glucuronide], in series [7] (human, in vivo), the analgesic effects result was “devoid of analgesic effects”; the “effect on the analgesic activity of morphine and morphine-6-O-glucuronide” value is reported as “counteract”.

For the molecule `CN1CC[C@]23c4c5ccc(O)c4O[C@H]2[C@@H](O[C@@H]2O[C@H](C(=O)O)[C@@H](O)[C@H](O)[C@H]2O)C=C[C@H]3[C@H]1C5` [morphine-6-O-glucuronide], the “effectiveness as an analgesic relative to the parent compound” value in series [7] (clinical studies, versus morphine) is 2-3 times.

`CN1CC[C@]23c4c5ccc(O)c4O[C@H]2[C@@H](O)C=C[C@H]3[C@H]1C5` [morphine]: at UGT2B7, the “Glucuronidation activity towards opioids” value is reported as “demonstrated”.

`C=CCN1CC[C@]23c4c5ccc(O)c4O[C@H]2[C@@H](O)C=C[C@H]3[C@H]1C5` [nalorphine]: the “Glucuronidation activity towards opioids” value at UGT2B7 is recorded as “demonstrated”.

For `C=CCN1CC[C@]23c4c5ccc(O)c4O[C@H]2C(=O)CC[C@@]3(O)[C@H]1C5` [naloxone], the “Glucuronidation activity towards opioids” value at UGT2B7 is “demonstrated”. The Vmax at UGT2B7H(268) [4] (UGT2B7H, two values = two different passages of cultured cells) was found to be 4530 pmol/min/mg protein; at UGT2B7Y(268) [5] (UGT2B7Y, two values = two different passages of cultured cells) it was 2550 pmol/min/mg protein.

As for `O=C1CC[C@@]2(O)[C@H]3Cc4ccc(O)c5c4[C@@]2(CCN3CC2CC2)[C@H]1O5` [naltrexone], the Vmax at UGT2B7Y(268) [5] is given as 840, 1130 pmol/min/mg protein.

For the molecule `Oc1cccc2ccccc12` [α-naphthol], the “4-methylumbelliferyl β-D-glucuronide cleavage slower with UGT1A6 assay compared to control” value at recombinant human UGT1A6 was 60%. In [6] (residues from 0 time point extractions, FIG. 3 panel A), the “non-specific interference of the aglycone with the cleavage assay” value is “does not interfere non-specifically”.

Turning to `O=C(O)[C@H]1O[C@@H](Oc2cccc3ccccc23)[C@H](O)[C@@H](O)[C@@H]1O` [α-naphthyl β-D-glucuronide], the “inhibition” value is recorded as “weakest; also recorded: weak competitor” in series [6] and “weak competitive inhibitor” in series [6] (listed as α-naphthol β-D-glucuronide).

As to `C[C@]12CC[C@@H]3c4ccc(O[C@@H]5O[C@H](C(=O)O)[C@@H](O)[C@H](O)[C@H]5O)cc4CC[C@H]3[C@@H]1CC[C@@H]2O` [β-estradiol-3-(β-D-glucuronide)], the “inhibition” value is reported as “strongest” in series [6] and “More potent inhibitors” in series [6] (listed as estradiol β-D-glucuronide).

B1: UGT2B7Y(268) (Homo sapiens) (protein)
chain: GKVLVWAAEYSHWMNIKTILDELIQRGHEVTVLASSASILFDPNNSSALKIEIYPTSLTKTELENFIMQQIKRWSDLPKDTFWLYFSQVQEIMSIFGDITRKFCKDVVSNKKFMKKVQESRFDVIFADAIFPCSELLAELFNIPFVYSLSFSPGYTFEKHSGGFIFPPSYVPVVMSELTDQMTFMERVKNMIYVLYFDFWFEIFDMKKWDQFYSEVLGRPTTLSETMGKADVWLIRNSWNFQFPYPLLPNVDFVGGLHCKPAKPLPKEMEDFVQSSGENGVVVFSLGSMVSNMTEERANVIASALAQIPQKVLWRFDGNKPDTLGLNTRLYKWIPQNDLLGHPKTRAFITHGGANGIYEAIYHGIPMVGIPLFADQPDNIAHMKARGAAVRVDFNTMSSTDLLNALKRVINDPSYKENVMKLSRIQHDQPVKPLDRAVFWIEFVMRHKGAKHLRVAAHDLTWFQYHSLDVIGFLLVCVATVIFIVTKCCLFCFWKFARKAKKGKND
Turning to B1, the Km was 140, 180 μM in series [8] (other: UGT2B7Y); 1360, 900 μM in series [9]; 50, 40 μM in series [10] (other: UGT2B7Y); 77, 121 μM in [11]. Besides, the Vmax in series [9] is reported as 5640, 6040 pmol/min/mg protein; in series [10] (other: UGT2B7Y), 3750, 2550 pmol/min/mg protein; in [11] it was 2870, 3650 pmol/min/mg protein.

B2: UGT2B7H(268) (Homo sapiens; Y268H) (protein)
chain: GKVLVWAAEYSHWMNIKTILDELIQRGHEVTVLASSASILFDPNNSSALKIEIYPTSLTKTELENFIMQQIKRWSDLPKDTFWLYFSQVQEIMSIFGDITRKFCKDVVSNKKFMKKVQESRFDVIFADAIFPCSELLAELFNIPFVYSLSFSPGYTFEKHSGGFIFPPSYVPVVMSELTDQMTFMERVKNMIYVLYFDFWFEIFDMKKWDQFYSEVLGRPTTLSETMGKADVWLIRNSWNFQFPHPLLPNVDFVGGLHCKPAKPLPKEMEDFVQSSGENGVVVFSLGSMVSNMTEERANVIASALAQIPQKVLWRFDGNKPDTLGLNTRLYKWIPQNDLLGHPKTRAFITHGGANGIYEAIYHGIPMVGIPLFADQPDNIAHMKARGAAVRVDFNTMSSTDLLNALKRVINDPSYKENVMKLSRIQHDQPVKPLDRAVFWIEFVMRHKGAKHLRVAAHDLTWFQYHSLDVIGFLLVCVATVIFIVTKCCLFCFWKFARKAKKGKND
Regarding B2, the Michaelis constant (Km) is 63, 200 μM in [8] (other: UGT2B7H); 540, 670 μM in series [9]; 41, 60 μM in [10] (other: UGT2B7H); 141, 171 μM in series [11]. In addition, the Vmax is 7510, 8570 pmol/min/mg protein in series [9]; 3810, 4530 pmol/min/mg protein in series [10] (other: UGT2B7H); 3990, 4670 pmol/min/mg protein in series [11].
